Results as given in ChEMBL document CHEMBL3044960, “Evaluation of fungicide applications to sweet orange at different flowering stages for control of postbloom fruit drop caused by Colletotrichum acutatum” (2008).
Active and inactive are the calls of the source. The calls are words filed in the database; no cut-off is given here.

What was measured:
[1] = system: Colletotrichum acutatum; test: Fungicidal activity against Colletotrichum acutatum infested Citrus sinensis assessed as reduction in symptomatic flowers at 0.5 g/l applied through airblast sprayer during open flower stage measured after 7 days; type: functional, organism-based
[2] = system: Colletotrichum acutatum; test: Fungicidal activity against Colletotrichum acutatum infested Citrus sinensis assessed as increase in fruit production per tree at 0.5 g/l applied through airblast sprayer during green bud to white ball flower stages measured after 70 days; type: functional, organism-based
[3] = system: Colletotrichum acutatum; test: Fungicidal activity against Colletotrichum acutatum infested Citrus sinensis assessed as total fruit weight per plant at 0.5 g/l applied through airblast sprayer during green bud until open flower stages measured after 70 days (Rvb =65.90 kg); type: functional
[4] = system: Colletotrichum acutatum; test: Fungicidal activity against Colletotrichum acutatum infested Citrus sinensis assessed as total fruit weight per plant at 0.5 g/l applied through airblast sprayer during green bud and white bud flower stages measured after 70 days (Rvb =65.90 kg); type: functional
[5] = system: Colletotrichum acutatum; test: Fungicidal activity against Colletotrichum acutatum infested Citrus sinensis assessed as increase in fruit set percentage at 0.5 g/l applied through airblast sprayer during green bud to white ball flower stages measured after 70 days in presence of KNO3; type: functional, organism-based
[6] = system: Colletotrichum acutatum; test: Fungicidal activity against Colletotrichum acutatum infested Citrus sinensis assessed as total fruit weight per plant at 0.5 g/l applied through airblast sprayer during green bud, white bud and hollow ball flower stages measured after 70 days (Rvb =65.90 kg); type: functional
[7] = system: Colletotrichum acutatum; test: Fungicidal activity against Colletotrichum acutatum infested Citrus sinensis assessed as total fruit weight per plant at 0.5 g/l applied through airblast sprayer during green bud flower stage measured after 70 days (Rvb =65.90 kg); type: functional
[8] = system: Colletotrichum acutatum; test: Fungicidal activity against Colletotrichum acutatum infested Citrus sinensis assessed as reduction in number of symptomatic flowers at 0.5 g/l applied through airblast sprayer during green bud and white bud flower stages measured after 7 days; type: functional, organism-based
[9] = system: Colletotrichum acutatum; test: Fungicidal activity against Colletotrichum acutatum infested Citrus sinensis assessed as reduction in symptomatic flowers at 0.5 g/l applied through airblast sprayer during white bud and hollow ball flower stages measured after 7 days; type: functional, organism-based
[10] = system: Colletotrichum acutatum; test: Fungicidal activity against Colletotrichum acutatum infested Citrus sinensis assessed as reduction in number of symptomatic flowers at 0.5 g/l applied through airblast sprayer during green bud flower stage measured after 7 days; type: functional, organism-based
[11] = system: Colletotrichum acutatum; test: Fungicidal activity against Colletotrichum acutatum infested Citrus sinensis assessed as increase in fruit set at 0.5 g/l applied through airblast sprayer during open flower stage measured after 70 days; type: functional, organism-based
[12] = system: Colletotrichum acutatum; test: Fungicidal activity against Colletotrichum acutatum infested Citrus sinensis assessed as reduction in symptomatic flowers at 0.5 g/l applied through airblast sprayer during green bud and hollow ball flower stages measured after 7 days; type: functional, organism-based
[13] = system: Colletotrichum acutatum; test: Fungicidal activity against Colletotrichum acutatum infested Citrus sinensis assessed as increase in fruit set at 0.5 g/l applied through airblast sprayer during green bud flower stage measured after 70 days; type: functional, organism-based
[14] = system: Colletotrichum acutatum; test: Fungicidal activity against Colletotrichum acutatum infested Citrus sinensis assessed as reduction in symptomatic flowers at 0.5 g/l applied through airblast sprayer during hollow ball flower stage measured after 7 days; type: functional, organism-based
[15] = system: Colletotrichum acutatum; test: Fungicidal activity against Colletotrichum acutatum infested Citrus sinensis assessed as increase in fruit set at 0.5 g/l applied through airblast sprayer during white bud flower stage measured after 70 days; type: functional, organism-based
[16] = system: Colletotrichum acutatum; test: Fungicidal activity against Colletotrichum acutatum infested Citrus sinensis assessed as reduction in number of symptomatic flowers at 0.5 g/l applied through airblast sprayer during green bud until open flower stages measured after 7 days; type: functional, organism-based
[17] = system: Colletotrichum acutatum; test: Fungicidal activity against Colletotrichum acutatum infested Citrus sinensis assessed as reduction in number of symptomatic flowers at 0.5 g/l applied through airblast sprayer during green bud, white bud and hollow ball flower stages measured after 7 days; type: functional, organism-based
[18] = system: Colletotrichum acutatum; test: Fungicidal activity against Colletotrichum acutatum infested Citrus sinensis assessed as increase in fruit set at 0.5 g/l applied through airblast sprayer during white bud and hollow ball flower stages measured after 70 days relative to control; type: functional, organism-based
[19] = system: Colletotrichum acutatum; test: Fungicidal activity against Colletotrichum acutatum infested Citrus sinensis assessed as increase in fruit production per tree at 0.5 g/l applied through airblast sprayer during green bud to white ball flower stages measured after 70 days in presence of KNO3; type: functional, organism-based
[20] = system: Colletotrichum acutatum; test: Fungicidal activity against Colletotrichum acutatum infested Citrus sinensis assessed as reduction in persistant calyces at 0.5 g/l applied through airblast sprayer during green bud to white ball flower stages measured after 7 days; type: functional, organism-based
[21] = system: Colletotrichum acutatum; test: Fungicidal activity against Colletotrichum acutatum infested Citrus sinensis assessed as increase in fruit set percentage at 0.5 g/l applied through airblast sprayer during green bud to white ball flower stages measured after 70 days; type: functional, organism-based
[22] = system: Colletotrichum acutatum; test: Fungicidal activity against Colletotrichum acutatum infested Citrus sinensis assessed as total fruit weight per plant at 0.5 g/l applied through airblast sprayer during green bud and hollow ball flower stages measured after 70 days (Rvb =49.88 kg); type: functional
[23] = system: Colletotrichum acutatum; test: Fungicidal activity against Colletotrichum acutatum infested Citrus sinensis assessed as total fruit weight per plant at 0.5 g/l applied through airblast sprayer during hollow ball flower stage measured after 70 days (Rvb =49.88 kg); type: functional
[24] = system: Colletotrichum acutatum; test: Fungicidal activity against Colletotrichum acutatum infested Citrus sinensis assessed as total fruit weight per plant at 0.5 g/l applied through airblast sprayer during open flower stage measured after 70 days (Rvb =49.88 kg); type: functional
[25] = system: Colletotrichum acutatum; test: Fungicidal activity against Colletotrichum acutatum infested Citrus sinensis assessed as total fruit weight per plant at 0.5 g/l applied through airblast sprayer during white bud and hollow ball flower stages measured after 70 days (Rvb =49.88 kg); type: functional
[26] = system: Colletotrichum acutatum; test: Fungicidal activity against Colletotrichum acutatum infested Citrus sinensis assessed as reduction in symptomatic flowers at 0.056 g/l applied through airblast sprayer during hollow ball flower stage measured after 7 days; type: functional, organism-based
[27] = system: Colletotrichum acutatum; test: Fungicidal activity against Colletotrichum acutatum infested Citrus sinensis assessed as total fruit weight per plant at 0.056 g/l applied through airblast sprayer during white bud and hollow ball flower stages measured after 70 days (Rvb =49.88 kg)s; type: functional
[28] = system: Colletotrichum acutatum; test: Fungicidal activity against Colletotrichum acutatum infested Citrus sinensis assessed as total fruit weight per plant at 0.056 g/l applied through airblast sprayer during open flower stage measured after 70 days (Rvb =49.88 kg); type: functional
[29] = system: Colletotrichum acutatum; test: Fungicidal activity against Colletotrichum acutatum infested Citrus sinensis assessed as reduction in number of symptomatic flowers at 0.056 g/l applied through airblast sprayer during green bud until open flower stages measured after 7 days; type: functional, organism-based
[30] = system: Colletotrichum acutatum; test: Fungicidal activity against Colletotrichum acutatum infested Citrus sinensis assessed as total fruit weight per plant at 0.056 g/l applied through airblast sprayer during hollow ball flower stage measured after 70 days (Rvb =49.88 kg); type: functional
[31] = system: Colletotrichum acutatum; test: Fungicidal activity against Colletotrichum acutatum infested Citrus sinensis assessed as total fruit weight per plant at 0.056 g/l applied through airblast sprayer during green bud flower stage measured after 70 days (Rvb =65.90 kg); type: functional
[32] = system: Colletotrichum acutatum; test: Fungicidal activity against Colletotrichum acutatum infested Citrus sinensis assessed as total fruit weight per plant at 0.056 g/l applied through airblast sprayer during green bud until open flower stages measured after 70 days (Rvb =65.90 kg); type: functional
[33] = system: Colletotrichum acutatum; test: Fungicidal activity against Colletotrichum acutatum infested Citrus sinensis assessed as reduction in number of symptomatic flowers at 0.056 g/l applied through airblast sprayer during green bud, white bud and hollow ball flower stages measured after 7 days; type: functional, organism-based
[34] = system: Colletotrichum acutatum; test: Fungicidal activity against Colletotrichum acutatum infested Citrus sinensis assessed as increase in fruit set at 0.056 g/l applied through airblast sprayer during green bud flower stage measured after 70 days; type: functional, organism-based
[35] = system: Colletotrichum acutatum; test: Fungicidal activity against Colletotrichum acutatum infested Citrus sinensis assessed as increase in fruit set at 0.056 g/l applied through airblast sprayer during green bud and white bud flower stages measured after 70 days; type: functional, organism-based
[36] = system: Colletotrichum acutatum; test: Fungicidal activity against Colletotrichum acutatum infested Citrus sinensis assessed as increase in fruit set at 0.056 g/l applied through airblast sprayer during open flower stage measured after 70 days; type: functional, organism-based
[37] = system: Colletotrichum acutatum; test: Fungicidal activity against Colletotrichum acutatum infested Citrus sinensis assessed as increase in fruit set at 0.056 g/l applied through airblast sprayer during green bud, white bud and hollow ball flower stages measured after 70 days; type: functional, organism-based
[38] = system: Colletotrichum acutatum; test: Fungicidal activity against Colletotrichum acutatum infested Citrus sinensis assessed as total fruit weight per plant at 0.056 g/l applied through airblast sprayer during green bud and hollow ball flower stages measured after 70 days (Rvb =49.88 kg); type: functional
[39] = system: Colletotrichum acutatum; test: Fungicidal activity against Colletotrichum acutatum infested Citrus sinensis assessed as increase in fruit set at 0.056 g/l applied through airblast sprayer during green bud until open flower stages measured after 70 days; type: functional, organism-based
[40] = system: Colletotrichum acutatum; test: Fungicidal activity against Colletotrichum acutatum infested Citrus sinensis assessed as reduction in symptomatic flowers at 0.056 g/l applied through airblast sprayer during open flower stage measured after 7 days; type: functional, organism-based
[41] = system: Colletotrichum acutatum; test: Fungicidal activity against Colletotrichum acutatum infested Citrus sinensis assessed as total fruit weight per plant at 0.056 g/l applied through airblast sprayer during green bud and white bud flower stages measured after 70 days (Rvb =65.90 kg); type: functional
[42] = system: Colletotrichum acutatum; test: Fungicidal activity against Colletotrichum acutatum infested Citrus sinensis assessed as reduction in symptomatic flowers at 0.056 g/l applied through airblast sprayer during green bud and hollow ball flower stages measured after 7 days; type: functional, organism-based
[43] = system: Colletotrichum acutatum; test: Fungicidal activity against Colletotrichum acutatum infested Citrus sinensis assessed as reduction in symptomatic flowers at 0.056 g/l applied through airblast sprayer during white bud and hollow ball flower stages measured after 7 days; type: functional, organism-based
[44] = system: Colletotrichum acutatum; test: Fungicidal activity against Colletotrichum acutatum infested Citrus sinensis assessed as total fruit weight per plant at 0.056 g/l applied through airblast sprayer during green bud, white bud and hollow ball flower stages measured after 70 days (Rvb =65.90 kg); type: functional

## COC(=O)Nc1nc2ccccc2[nH]1 [CARBENDAZIM]
[1]
  Activity: inactive
[2]
  Activity: Active
[3]
  Activity: 114.9 kg
[4]
  Activity: 67.9 kg
[5]
  Activity: Active
[6]
  Activity: 102.4 kg
[7]
  Activity: 53.7 kg
[8]
  Activity: Active
[9]
  Activity: Active
[10]
  Activity: Active
[11]
  Activity: inactive
[12]
  Activity: Active
[13]
  Activity: Active
[14]
  Activity: Active
[15]
  Activity: Active
[16]
  Activity: Active
[17]
  Activity: Active
[18]
  Activity: Active
[19]
  Activity: Active
[20]
  Activity: Active
[21]
  Activity: Active
[22]
  Activity: 73.8 kg
[23]
  Activity: 57 kg
[24]
  Activity: 59 kg
[25]
  Activity: 63.5 kg

## CC1COC(Cn2cncn2)(c2ccc(Oc3ccc(Cl)cc3)cc2Cl)O1 (centres undefined) [DIFENOCONAZOLE]
[26]
  Activity: inactive
[27]
  Activity: 32.7 kg
[28]
  Activity: 38 kg
[29]
  Activity: Active
[30]
  Activity: 71.4 kg
[31]
  Activity: 59.2 kg
[32]
  Activity: 47.2 kg
[33]
  Activity: Active
[34]
  Activity: inactive
[35]
  Activity: inactive
[36]
  Activity: inactive
[37]
  Activity: inactive
[38]
  Activity: 53.5 kg
[39]
  Activity: inactive
[40]
  Activity: inactive
[41]
  Activity: 38.7 kg
[42]
  Activity: Active
[43]
  Activity: Active
[44]
  Activity: 53.9 kg
